# According to patent US11440884B2, “Compounds, salts thereof and methods for treatment of diseases” (ACADIA PHARMACEUTICALS INC., priority 2017, dated 2022):
# pKi: −log10 of the molar value.
# Target: 5-HT2A receptor (Homo sapiens (Human), UniProt P28223)
# Experiment: Receptor Selection and Amplification (R-SAT) functional antagonist assay;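 also: Read-out is β-galactosidase marker gene activity with ONPG substrate, measured after five days of growth in 96-well plates holding the test compound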
# Conditions: not given
# 5-HT2A receptor, sequence (P28223 whole entry): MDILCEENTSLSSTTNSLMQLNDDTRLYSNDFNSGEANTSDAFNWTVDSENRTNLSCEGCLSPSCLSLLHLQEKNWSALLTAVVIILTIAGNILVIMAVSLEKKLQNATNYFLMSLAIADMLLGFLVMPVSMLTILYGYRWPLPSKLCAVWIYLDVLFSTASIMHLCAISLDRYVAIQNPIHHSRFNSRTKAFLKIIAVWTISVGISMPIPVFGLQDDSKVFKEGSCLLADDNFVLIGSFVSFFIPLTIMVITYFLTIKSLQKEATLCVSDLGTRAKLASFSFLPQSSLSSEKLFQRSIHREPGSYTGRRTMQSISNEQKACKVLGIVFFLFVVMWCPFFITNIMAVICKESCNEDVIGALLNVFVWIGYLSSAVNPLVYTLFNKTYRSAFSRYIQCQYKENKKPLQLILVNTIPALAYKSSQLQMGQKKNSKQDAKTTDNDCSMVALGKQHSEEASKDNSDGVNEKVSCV
pKi,SMILES,5-HT2a pKi
8.60,"COc1ccc(CN(C(=O)OCc2ccc(OC(C)C)cc2)C2CCN(C)CC2)c(F)c1 [Compound 41, [4-(propan-2-yloxy)phenyl]methyl N-[(2-fluoro-4-methoxyphenyl)-methyl]-N-(1-methylpiperidin-4-yl)carbamate]",–
3.70,"CC(C)COc1ccc(CC(=O)N(Cc2ccc(Cl)cc2C(F)(F)F)C2CCN(C)CC2)cc1 [Compound 50, N-{[4-chloro-2-(trifluoromethyl)phenyl]methyl}-N-(1-methylpiperidin-4-yl)-2-[4-(2-methylpropoxy)phenyl]acetamide; trifluoroacetic acid]",–

# The remaining lines, values behind:
SMILES,pKi,5-HT2a pKi
"CC(C)Oc1ccc(CC(=O)N(Cc2ccc(F)c(F)c2F)C2CCN(C)CC2)cc1.O=C(O)C(F)(F)F [Compound 34, N-(1-methylpiperidin-4-yl)-2-[4-(propan-2-yloxy)phenyl]-N-[(2,3,4-trifluorophenyl)methyl]acetamide; trifluoroacetic acid]",–,7.4
"CC(=O)O.COc1cc(F)c(CN(C(=O)OCc2ccc(OCC(C)C)cc2)C2CCN(C)CC2)c(F)c1 [Compound 36, [4-(2-methylpropoxy)phenyl]methyl N-[(2,6-difluoro-4-methoxyphenyl)methyl]-N-(1-methylpiperidin-4-yl)carbamate; acetic acid]",–,9.0
"Cc1cc(F)ccc1CN(C(=O)OCc1ccc(OC(C)C)cc1)C1CCN(C)CC1.O=C(O)C(F)(F)F [Compound 56, [4-(propan-2-yloxy)phenyl]methyl N-[(4-fluoro-2-methylphenyl)-methyl]-N-(1-methylpiperidin-4-yl)carbamate; trifluoroacetic acid]",–,7.8
"COc1ccc(CN(C(=O)OCc2ccc(OC(C)C)cc2)C2CCN(C)CC2)c(Cl)c1.O=C(O)C(F)(F)F [Compound 57, [4-(propan-2-yloxy)phenyl]methyl N-[(2-chloro-4-methoxy-phenyl)methyl]-N-(1-methylpiperidin-4-yl)carbamate; trifluoroacetic acid]",–,7.8
CC(C)COc1ccc(CC(=O)N(Cc2ccc(C(F)(F)F)cc2F)C2CCN(C)CC2)cc1.O=C(O)C(F)(F)F [Compound 69],–,7.7
CN1CCC(N(Cc2ccc(F)cc2F)C(=O)OCc2ccc(OC(C)(C)C)cc2)CC1.O=C(O)C(F)(F)F [Compound 72],–,10.0
CN1CCC(N(Cc2ccc(F)cc2F)C(=O)OCc2ccc(C(C)(F)F)cc2)CC1.O=C(O)C(F)(F)F [Compound 73],–,9.4

# Same assay, conditions: R-SAT, transfected NIH3T3 cells; guidance: high affinity pKi≥8.4, moderate affinity pKi≥7.7
row,5-HT2a pKi,SMILES
1,9.8,"CN1CCC(N(Cc2ccc(F)cc2F)C(=O)OCc2ccc(OCCF)cc2)CC1 [Compound 39, [4-(2-fluoroethoxy)phenyl]methyl N-[(2,4-difluorophenyl)methyl]-N-(1-methylpiperidin-4-yl)carbamate]"
2,8.0,"COC(=O)C(C)(C)CN1CCC(N(Cc2ccc(F)cc2F)C(=O)OCc2ccc(OC(C)C)cc2)CC1 [Compound 42, methyl 3-(4-{[(2,4-difluorophenyl)methyl]({[4-(propan-2-yloxy)phenyl]methoxy}carbonyl)amino}piperidin-1-yl)-2,2-dimethylpropanoate]"
3,8.5,"CC(C)Oc1ccc(COC(=O)N(Cc2ccc(F)cc2F)C2CCN(CC(C)(C)C(=O)O)CC2)cc1 [Compound 43, 3-(4-{[(2,4-difluorophenyl)methyl]({[4-(propan-2-yloxy)phenyl]-methoxy}carbonyl)amino}piperidin-1-yl)-2,2-dimethylpropanoic acid]"
4,9.4,"CCN1CCC(N(Cc2ccc(F)cc2F)C(=O)OCc2ccc(OC(C)C)cc2)CC1 [Compound 44, [4-(propan-2-yloxy)phenyl]methyl N-[(2,4-difluorophenyl)methyl]-N-(1-ethylpiperidin-4-yl)carbamate]"
5,8.6,"CC(C)Oc1ccc(COC(=O)N(Cc2ccc(F)cc2F)C2CCN(C3CC3)CC2)cc1 [Compound 45, [4-(propan-2-yloxy)phenyl]methyl N-(1-cyclopropylpiperidin-4-yl)-N-[(2,4-difluorophenyl)methyl]carbamate]"
6,7.6,"CC(C)Oc1ccc(COC(=O)N(Cc2ccc(F)cc2F)C2CCN(C3COC3)CC2)cc1 [Compound 46, [4-(propan-2-yloxy)phenyl]methyl N-[(2,4-difluorophenyl)methyl]-N-[1-(oxetan-3-yl)piperidin-4-yl]carbamate]"
7,8.1,"COc1ccc(CN(C(=O)Cc2ccc(OCC(C)C)cc2)C2CCN(C)CC2)c(F)c1 [Compound 47, N-[(2-fluoro-4-methoxyphenyl)methyl]-N-(1-methylpiperidin-4-yl)-2-[4-(2-methylpropoxy)phenyl]acetamide]"
8,7.4,"CC(C)Oc1ccc(/C=C/C(=O)N(Cc2ccc(F)cc2F)C2CCN(C)CC2)cc1 [Compound 48, (2E)-N-[(2,4-difluorophenyl)methyl]-N-(1-methylpiperidin-4-yl)-3-[4-(propan-2-yloxy)phenyl]prop-2-enamide]"
9,8.1,"CC(C)COc1ccc(COC(=O)N(Cc2ccc(F)cc2Cl)C2CCN(C)CC2)cc1 [Compound 58, [4-(2-methylpropoxy)phenyl]methyl N-[(2-chloro-4-fluorophenyl)methyl]-N-(1-methylpiperidin-4-yl)carbamate]"
10,8.4,"CC(C)Oc1ccc(COC(=O)N(Cc2ccc(F)cc2Cl)C2CCN(C)CC2)cc1 [Compound 63, [4-(propan-2-yloxy)phenyl]methyl N-[(2-chloro-4-fluorophenyl)-methyl]-N-(1-methylpiperidin-4-yl)carbamate]"
11,8.0,"CC(C)COc1ccc(COC(=O)N(Cc2ccc(Cl)cc2Cl)C2CCN(C)CC2)cc1 [Compound 64, [4-(2-methylpropoxy)phenyl]methyl N-[(2,4=dichlorophenyl)methyl]-N-(1-methylpiperidin-4-yl)carbamate]"
12,7.7,"Cc1ccc(F)c(CN(C(=O)OCc2ccc(OC(C)C)cc2)C2CCN(C)CC2)c1F [Compound 65, [4-(propan-2-yloxy)phenyl]methyl N-[(2,6-difluoro-3-methylphenyl)methyl]-N-(1-methylpiperidin-4-yl)carbamate]"
13,8.4,"CC(C)Oc1ccc(COC(=O)N(Cc2c(F)ccc(F)c2F)C2CCN(C)CC2)cc1 [Compound 66, [4-(propan-2-yloxy)phenyl]methyl N-(1-methylpiperidin-4-yl)-N-[(2,3,6-trifluorophenyl)methyl]carbamate]"
14,10.0,"Cc1c(F)ccc(CN(C(=O)OCc2ccc(OC(C)C)cc2)C2CCN(C)CC2)c1F [Compound 67, [4-(propan-2-yloxy)phenyl]methyl N-[(2,4-difluoro-3-methylphenyl)methyl]-N-(1-methylpiperidin-4-yl)carbamate]"
15,7.3,"Cc1ccc(CN(C(=O)OCc2ccc(OC(C)C)cc2)C2CCN(C)CC2)c(F)c1 [Compound 68, [4-(propan-2-yloxy)phenyl]methyl N-[(2-fluoro-4-methylphenyl)-methyl]-N-(1-methylpiperidin-4-yl)carbamate]"

# The remaining lines, values behind:
row,SMILES,5-HT2a pKi
1,"CC(C)COc1ccc(COC(=O)N(Cc2ccc(F)c(F)c2F)C2CCN(C)CC2)cc1 [Compound 37, [4-(2-methylpropoxy)phenyl]methyl N-(1-methylpiperidin-4-yl)-N-[(2,3,4-trifluorophenyl)methyl]carbamate]",8.9
2,"CC(C)Oc1ccc(COC(=O)N(Cc2ccc(Cl)cc2F)C2CCN(C)CC2)cc1 [Compound 38, [4-(propan-2-yloxy)phenyl]methyl N-[(4-chloro-2-fluorophenyl)-methyl]-N-(1-methylpiperidin-4-yl)carbamate]",9.3
3,"CCCCOc1ccc(COC(=O)N(Cc2ccc(F)cc2F)C2CCN(C)CC2)cc1 [Compound 40, (4-butoxyphenyl)methyl N-[(2,4-difluorophenyl)methyl]-N-(1-methylpiperidin-4-yl)carbamate]",8.9
4,"CC(C)COc1ccc(CC(=O)N(Cc2ccc(F)cc2OC(F)(F)F)C2CCN(C)CC2)cc1.O=C(O)C(F)(F)F [Compound 51, N-{[4-fluoro-2-(trifluoromethoxy)phenyl]methyl}-N-(1-methyl-piperidin-4-yl)-2-[4-(2-methylpropoxy)phenyl]acetamide; trifluoroacetic acid]",6.7
5,"Cc1cc(F)ccc1CN(C(=O)Cc1ccc(OCC(C)C)cc1)C1CCN(C)CC1.O=C(O)C(F)(F)F [Compound 52, N-[(4-fluoro-2-methylphenyl)methyl]-N-(1-methylpiperidin-4-yl)-2-[4-(2-methylpropoxy)phenyl]acetamide; trifluoroacetic acid]",6.7
6,"COc1ccc(CN(C(=O)Cc2ccc(OCC(C)C)cc2)C2CCN(C)CC2)c(Cl)c1.O=C(O)C(F)(F)F [Compound 53, N-[(2-chloro-4-methoxyphenyl)methyl]-N-(1-methylpiperidin-4-yl)-2-[4-(2-methylpropoxy)phenyl]acetamide; trifluoroacetic acid]",6.9
7,"CC(C)COc1ccc(CC(=O)N(Cc2ccc(Cl)cc2Cl)C2CCN(C)CC2)cc1.O=C(O)C(F)(F)F [Compound 59, N-[(2,4-dichlorophenyl)methyl]-N-(1-methylpiperidin-4-yl)-2-[4-(2-methylpropoxy)phenyl]acetamide; trifluoroacetic acid]",6.6
8,"CC(C)Oc1ccc(CC(=O)N(Cc2ccc(Cl)cc2Cl)C2CCN(C)CC2)cc1.O=C(O)C(F)(F)F [Compound 60, N-[(2,4-dichlorophenyl)methyl]-N-(1-methylpiperidin-4-yl)-2-[4-(propan-2-yloxy)phenyl]acetamide; trifluoroacetic acid]",6.5
9,"CC(C)COc1ccc(CC(=O)N(Cc2ccc(F)cc2Cl)C2CCN(C)CC2)cc1.O=C(O)C(F)(F)F [Compound 61, N-[(2-chloro-4-fluorophenyl)methyl]-N-(1-methylpiperidin-4-yl)-2-[4-(2-methylpropoxy)phenyl]acetamide; trifluoroacetic acid]",6.7
10,"CC(C)Oc1ccc(CC(=O)N(Cc2ccc(F)cc2Cl)C2CCN(C)CC2)cc1.O=C(O)C(F)(F)F [Compound 62, N-[(2-chloro-4-fluorophenyl)methyl]-N-(1-methylpiperidin-4-yl)-2-[4-(propan-2-yloxy)phenyl]acetamide; trifluoroacetic acid]",6.5
